Results on eleven molecules are retold here after patent publication US20210255193A1, “LYSINE REACTIVE PROBES AND USES THEREOF” (The Scripps Research Institute, priority 2017, published 2021).

Holding throughout (assay): competitive isoTOP-ABPP
Assay type in all cases: binding

Assay [1] addresses T1, TRMT10C Mitochondrial ribonuclease P protein 1 (Homo sapiens, UniProt Q7L0Y3).
T1 construct: isoTOP-ABPP experiments performed in cell lysates (in vitro); endogenous in cells; host or cells: soluble proteome of human cancer cell lines (MDA-MB-231; Ramos and Jurkat also prepared)
T1 sequence (Q7L0Y3 40-403): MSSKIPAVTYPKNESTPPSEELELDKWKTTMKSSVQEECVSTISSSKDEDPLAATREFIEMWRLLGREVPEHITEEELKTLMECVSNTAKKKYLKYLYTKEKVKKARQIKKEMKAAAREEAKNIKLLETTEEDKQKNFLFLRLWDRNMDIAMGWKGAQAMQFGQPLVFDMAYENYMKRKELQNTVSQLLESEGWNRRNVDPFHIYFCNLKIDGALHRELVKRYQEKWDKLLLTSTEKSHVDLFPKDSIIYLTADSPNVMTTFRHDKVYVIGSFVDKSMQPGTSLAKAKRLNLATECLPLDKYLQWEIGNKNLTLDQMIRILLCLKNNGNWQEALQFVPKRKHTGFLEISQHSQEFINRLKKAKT
As to conditions: for isoTOP-ABPP ratio (R) at liganded lysine Q7L0Y3_K325: 50 uM, in vitro, sol, 231. The method, boiled down:
(§1)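 Competition format: fragment (50 μM activated ester, 100 μM guanidinylating agent) versus vehicle in lysate, then lysine probe STP-alkyne at 0.1 mM for 1 h. Quantitation by light/heavy TEV-tag MS1 peak areas, reported as R.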

Assay [2] deals with T2, MRPS24 28S ribosomal protein S24, mitochondrial (Homo sapiens, UniProt Q96EL2).
T2 construct: isoTOP-ABPP experiments performed in cell lysates (in vitro); endogenous in cells; host or cells: soluble proteome of human cancer cell lines (MDA-MB-231; Ramos and Jurkat also prepared)
To be noted: for isoTOP-ABPP ratio (R) at liganded lysine Q96EL2_K94: 50 uM, in vitro, sol, 231. The method, boiled down:
as §1

The target of assay [3] is T3, PFKM 6-phosphofructokinase, muscle type (Homo sapiens, UniProt P08237).
T3 construct: isoTOP-ABPP experiments performed in cell lysates (in vitro); endogenous in cells; host or cells: MDA-MB-231 soluble lysate
T3 sequence (P08237 1-780): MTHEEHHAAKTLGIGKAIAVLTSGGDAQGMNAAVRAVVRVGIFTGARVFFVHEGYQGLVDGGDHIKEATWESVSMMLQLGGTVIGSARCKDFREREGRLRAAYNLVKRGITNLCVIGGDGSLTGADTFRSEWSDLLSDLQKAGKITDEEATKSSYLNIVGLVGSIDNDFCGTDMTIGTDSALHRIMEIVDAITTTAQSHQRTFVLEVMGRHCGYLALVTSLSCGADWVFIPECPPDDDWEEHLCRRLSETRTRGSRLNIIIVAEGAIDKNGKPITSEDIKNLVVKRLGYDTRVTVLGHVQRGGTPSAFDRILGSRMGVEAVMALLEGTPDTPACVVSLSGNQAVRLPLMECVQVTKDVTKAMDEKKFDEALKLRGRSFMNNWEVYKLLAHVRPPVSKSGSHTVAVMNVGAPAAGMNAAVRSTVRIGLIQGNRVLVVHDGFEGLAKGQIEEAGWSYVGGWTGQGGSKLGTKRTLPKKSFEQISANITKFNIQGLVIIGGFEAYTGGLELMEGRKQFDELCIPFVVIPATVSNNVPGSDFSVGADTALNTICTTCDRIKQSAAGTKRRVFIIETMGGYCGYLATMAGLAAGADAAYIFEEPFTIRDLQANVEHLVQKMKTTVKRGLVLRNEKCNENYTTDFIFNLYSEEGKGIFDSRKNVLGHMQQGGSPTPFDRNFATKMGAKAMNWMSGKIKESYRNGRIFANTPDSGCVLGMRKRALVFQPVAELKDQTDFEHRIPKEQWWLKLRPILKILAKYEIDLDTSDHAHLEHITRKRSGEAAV
As to conditions: for isoTOP-ABPP ratio (R) at liganded lysine P08237_K678: 50 uM, in vitro, sol, 231. In a few lines: as §1

For the molecule `O=C(Oc1ccc([N+](=O)[O-])cc1[N+](=O)[O-])c1ccc(-c2ccccc2)cc1` [fragment 37, 2,4-Dinitrophenyl [1,1′-biphenyl]-4-carboxylate], the “isoTOP-ABPP ratio (R) at liganded lysine Q7L0Y3_K325” value in assay [1] was 1.0. In addition, in assay [2], the “isoTOP-ABPP ratio (R) at liganded lysine Q96EL2_K94” value came to 0.9. Further, the “isoTOP-ABPP ratio (R) at liganded lysine P08237_K678” value in assay [3] came to 1.0.
Turning to `O=C(CC12CC3CC(CC(C3)C1)C2)Oc1ccc([N+](=O)[O-])cc1[N+](=O)[O-]` [fragment 38, 2,4-Dinitrophenyl 2-(adamantan-1-yl)acetate], in assay [1], the “isoTOP-ABPP ratio (R) at liganded lysine Q7L0Y3_K325” value is listed as 0.8. Besides, the “isoTOP-ABPP ratio (R) at liganded lysine Q96EL2_K94” value in assay [2] came out at 3.1. Besides, the “isoTOP-ABPP ratio (R) at liganded lysine P08237_K678” value in assay [3] worked out at 1.0.
Regarding `O=C(Oc1ccc([N+](=O)[O-])cc1[N+](=O)[O-])c1ccc(Oc2ccccc2)cc1` [fragment 39, 2,4-Dinitrophenyl 4-phenoxybenzoate], the “isoTOP-ABPP ratio (R) at liganded lysine Q7L0Y3_K325” value in assay [1] came to 0.9. Further, in assay [2], the “isoTOP-ABPP ratio (R) at liganded lysine Q96EL2_K94” value turned out to be 1.2. The “isoTOP-ABPP ratio (R) at liganded lysine P08237_K678” value in assay [3] worked out at 1.0.
Regarding `CC(C)(C)OC(=O)NCCCC(=O)Oc1ccc([N+](=O)[O-])cc1[N+](=O)[O-]` [fragment 41, 2,4-Dinitrophenyl 4-((tert-butoxycarbonyl)amino)butanoate], in assay [1], the “isoTOP-ABPP ratio (R) at liganded lysine Q7L0Y3_K325” value is 0.9. In assay [2], the “isoTOP-ABPP ratio (R) at liganded lysine Q96EL2_K94” value stood at 1.3. The “isoTOP-ABPP ratio (R) at liganded lysine P08237_K678” value in assay [3] was found to be 2.0.
In the case of `O=C(Oc1ccc([N+](=O)[O-])cc1[N+](=O)[O-])C(c1ccccc1)(c1ccccc1)c1ccccc1` [fragment 42, 2,4-Dinitrophenyl 2,2,2-triphenylacetate], the “isoTOP-ABPP ratio (R) at liganded lysine Q7L0Y3_K325” value in assay [1] came to 1.0. Further, the “isoTOP-ABPP ratio (R) at liganded lysine Q96EL2_K94” value in assay [2] is given as 1.5. For the same molecule, in assay [3], the “isoTOP-ABPP ratio (R) at liganded lysine P08237_K678” value was found to be 0.9.
In the case of `CC(=O)Oc1ccc([N+](=O)[O-])cc1[N+](=O)[O-]` [fragment 43, 2,4-Dinitrophenyl acetate], in assay [1], the “isoTOP-ABPP ratio (R) at liganded lysine Q7L0Y3_K325” value is listed as 1.0. For the same molecule, the “isoTOP-ABPP ratio (R) at liganded lysine Q96EL2_K94” value in assay [2] is recorded as 1.1. In addition, the “isoTOP-ABPP ratio (R) at liganded lysine P08237_K678” value in assay [3] was found to be 1.3.
Regarding `N#Cc1ccc(C(=O)Oc2ccc([N+](=O)[O-])cc2[N+](=O)[O-])cc1` [fragment 44, 2,4-Dinitrophenyl 4-cyanobenzoate], the “isoTOP-ABPP ratio, lysine Q7L0Y3_K325” value in assay [1] (50 uM_231_sol_in vitro) was 1.3. The “isoTOP-ABPP ratio, lysine Q96EL2_K94” value in assay [2] (50 uM_231_sol_in vitro) amounted to 1.1. The “isoTOP-ABPP ratio, lysine P08237_K678” value in assay [3] (50 uM_231_sol_in vitro) was found to be 1.9.
As for `O=C(ON1C(=O)CCC1=O)c1cc(C(F)(F)F)cc(C(F)(F)F)c1` [fragment 46, 3,5-Bis(trifluoromethyl)benzoic acid NHS ester], in assay [1] (50 uM_231_sol_in vitro), the “isoTOP-ABPP ratio, lysine Q7L0Y3_K325” value came to 1.0. Further, the “isoTOP-ABPP ratio, lysine Q96EL2_K94” value in assay [2] (50 uM_231_sol_in vitro) is 1.0. Moreover, the “isoTOP-ABPP ratio, lysine P08237_K678” value in assay [3] (50 uM_231_sol_in vitro) amounted to 1.3.
In the case of `COC(=O)NC(=NC(=O)OCC1c2ccccc2-c2ccccc21)n1cccn1` [fragment 49, N-Methoxycarbonyl-N′-9-fluorenylmethoxycarbonyl-pyrazole-1-carboxamidine], the “isoTOP-ABPP ratio, lysine Q7L0Y3_K325” value in assay [1] (100 uM_231_sol_in vitro) worked out at 1.2. Moreover, in assay [2] (100 uM_231_sol_in vitro), the “isoTOP-ABPP ratio, lysine Q96EL2_K94” value is 3.0. Also, in assay [3] (100 uM_231_sol_in vitro), the “isoTOP-ABPP ratio, lysine P08237_K678” value turned out to be 5.4.
On the same counts, the results for `CC(C)(C)OC(=O)N=C(NC(=O)OC(C)(C)C)n1cccn1` [fragment 50, reference compound] are 6.2, 2.2 and 20.0.
As to `NC(=O)c1cc(C(F)(F)F)cc(C(F)(F)F)c1` [fragment 51, reference compound], the “isoTOP-ABPP ratio, lysine Q7L0Y3_K325” value in assay [1] (50 uM_231_sol_in vitro) worked out at 0.9. Further, the “isoTOP-ABPP ratio, lysine Q96EL2_K94” value in assay [2] (50 uM_231_sol_in vitro) worked out at 0.9. Also, the “isoTOP-ABPP ratio, lysine P08237_K678” value in assay [3] (50 uM_231_sol_in vitro) is 0.8.
